Reference: patent US11390621B2, “Chiral indole compounds and their use” (ARIAGEN, INC., priority 2019, dated 2022)
Where “and” joins values, the source holds several entries; their conditions need not be identical. Equal values may be shown once. Read-outs that look alike come from different tables or passages of the source.

Tests used:
EMT-6 cancer cells = assay: EMT-6 subcutaneous syngeneic mouse tumor model (Example 48); format: in vivo, BALB/C mice; settings: (susp), 40 mg/kg, IP
Procedure: This example describes in vivo studies that evaluated the anti-cancer efficacy of ARI-143, ARI-164, ARI-165, and ARI-186 in syngeneic mouse tumor models. Mice implanted subcutaneously with EMT-6 or Pan02 cancer cells were treated with ARI-143, ARI-164, ARI-165, ARI-186, or vehicle controls, as described below.
A monolayer culture of tumor cells was maintained in vitro in DMEM or RPMI1640 medium supplemented with 10% fetal bovine serum at 37° C. in an atmosphere of 5% CO2. Cells in exponential growth phase were harvested and quantitated by cell counter before tumor inoculation. The cell lines used are described in the table below.
Two subcutaneous syngeneic mouse tumor models were generated by innoculating female BALB/C or C57BL/6 mice with cancer cells at their right lower or front flank as detailed in the table below:
Each mouse was inoculated subcutaneously with tumor cells in 0.1 mL of PBS. Treatments were started when the mean tumor size reached approximately 80-120 mm^3 (around 100 mm^3). The administration of the test compounds and the animal number in each study group are shown in the study design. The date of tumor cell inoculation was denoted as day 0.
ARI-143, ARI-164, and ARI-165 were dissolved in DMSO at the final concentration of 26.7 mg/ml and stored at room temperature. In Pan02 studies of ARI-164 and ARI-186, both compounds were dissolved in 100% PEG400.
Randomization of animals was started when the mean tumor size reached approximately 90 mm^3 to form the mouse study groups. The randomization was-performed based on “Matched distribution” method using the multi-task method (StudyDirector™ software, version 3.1.399.19)/randomized block design. The mouse groups (ten in each group) were treated with vehicle (DMSO or PEG400) or the test compounds at a dose of 26-80 mg/kg by intraperitoneal (i.p.). injection, QD for 28 days or longer.
After tumor cell inoculation, the mice were checked daily for morbidity and mortality. During routine monitoring, the mice were checked for tumor growth and any effects of the treatment on behavior such as mobility, food and water consumption, body weight gain/loss (body weights were measured twice per week after randomization), eye/hair matting, and any other abnormalities. Mortality and observed clinical signs were recorded for individual mice in detail.
Tumor volumes were measured twice per week in two dimensions using a caliper, and the volume was expressed in mm^3 using the formula: V=(L×W×W)/2, where V is tumor volume, L is tumor length (the longest tumor dimension) and W is tumor width (the longest tumor dimension perpendicular to L). Dosing as well as tumor and body weight measurements was conducted in a Laminar Flow Cabinet. The body weights and tumor volumes were measured by using StudyDirector™ software (version 3.1.399.19). Dosing Holiday
Tumor growth inhibition percentage (TGI %) is an indicator for antitumor activity of a drug compound, and expressed as: TGI(%)=100×(1−T/C), where T and C are the mean tumor volume (or weight) of the treated and control groups, respectively, on a given day. Statistical analysis of the difference in mean tumor volume (MTV) among the groups was conducted using the data collected on the day when the MTV of the vehicle group reached the humane endpoints, so that TGI could be derived for all or most mice enrolled in the study.

[1] = In vivo pharmacokinetic studies in rats; parameters: species or system SD rats; settings: rats; for AUC(0-t): read-out: AUClast; for behaviour of exposure after 5 days of repeat dosing (in words): 10 mg/kg PO QD for 5 days
Procedure: This example describes pharmacokinetic (PK) studies of ARI-164, ARI-165, ARI-186, ARI-224, and ARI-226 in mice and rats. In the present studies, the test compounds were given to groups of mice and/or rats (N=3 in each group), intravenously (IV) at 2 mg/kg or orally (PO) at 10, 30, or 40 mg/kg. ARI-186, ARI-224 and ARI-226 were given orally to rats QD for 5 days at 10 mg/kg to assess whether decreased susceptibility to CYP1A1/1A2 metabolism would lead to increased accumulation. IV doses were formulated in DMSO, while PO doses were formulated in a 50/50 mixture of PEG400 and Tween 80 (single dose mouse and rat studies for ARI-164, ARI-165, ARI-186, ARI-224, ARI-226) or PEG400/Kolliphor HS15/Oleic Acid 45/45/10 (ARI-164 repeat dose rat study). Blood samples were collected at pre-dose and over a period of 24 hours post-dose. Plasma concentrations of the test compounds were determined by HPLC.

[2] = SD, rat, plasma, po, 10 mg/kg, repeat 10 mg/kg PO QD, Day 5, Mean
[3] = SD, rat, plasma, po, 10 mg/kg, repeat 10 mg/kg PO QD, Day 5, individual animal
[4] = Sprague-Dawley (SD), rat, plasma, po, 10 mg/kg, repeat 10 mg/kg PO QD, Day 1, Mean of 3 animals
[5] = Sprague-Dawley, rat, plasma, po, 10 mg/kg, repeat 10 mg/kg PO QD, Day 1, individual animal
[6] = Sprague-Dawley, rat, plasma, po, 10 mg/kg, repeat 10 mg/kg PO QD, Day 5, Mean
[7] = repeat 10 mg/kg PO QD, Day 1, individual animal
[8] = repeat 10 mg/kg PO QD, Day 5, individual animal
[9] = SD, rat, plasma, po, 10 mg/kg, PO 10 mg/kg repeat dose, Day 1, Mean of 3 animals
[10] = Sprague-Dawley (SD), rat, plasma, po, 10 mg/kg, PO 10 mg/kg repeat dose, Day 1, individual animals (ID 4, 5, 6)
[11] = Sprague-Dawley (SD), rat, plasma, po, 10 mg/kg, PO 10 mg/kg repeat dose, Day 5, Mean of 3 animals
[12] = PO 10 mg/kg repeat dose, Day 1, individual animals (ID 4, 5, 6), 10 mg/kg
[13] = PO 10 mg/kg repeat dose, Day 5, individual animals (ID 4, 5, 6), 10 mg/kg

In the case of `CCC(=O)c1csc(C(=O)c2c[nH]c3cc(F)ccc23)n1` [ARI-143, 1-(2-(6-fluoro-1H-indole-3-carbonyl)thiazol-4-yl)propan-1-one], the TGI (EMT-6 cancer cells; study day 6) is reported as 0.1%, the TGI (EMT-6 cancer cells; study day 10) is reported as −10.1% and the TGI (EMT-6 cancer cells; study day 13) is reported as 0.6%. It also gave a TGI (EMT-6 cancer cells; study day 17) of 30.9%, a TGI (EMT-6 cancer cells; study day 20) of 41.0% and a TGI (EMT-6 cancer cells; study day 24) of 53.2%. It also gave a TGI (EMT-6 cancer cells; study day 27) of 51.8% and a TGI (EMT-6 cancer cells; study day 31) of 54.8%.
`N[C@@H](c1csc(C(=O)c2c[nH]c3cc(F)ccc23)n1)C(F)(F)F` [ARI-224] gave an AUC(0-inf) [1, 2] of 8.24 ng·h/mL, an MRT inf at 5 days [1, 2] of 1.95 h and a half-life at 5 days [1, 2] of 76.8 min. It also gave an AUC(0-inf) [1, 3] of 8.24 ng·h/mL, an MRT inf at 5 days [1, 3] of 1.95 h and a half-life at 5 days [1, 3] of 76.8 min. The AUC(0-inf) [1, 4] was 2680 ng·h/mL, the Cmax at 1 day [1, 4] was 792 ng/mL and the MRT inf at 1 day [1, 4] was 2.79 h. The MRT last at 1 day [1, 4] was 2.48 h, the half-life at 1 day [1, 4] was 93 min and the AUC(0-t) [1, 4] was 2600 ng·h/mL. It also gave a Tmax at 1 day ([1]; Sprague-Dawley (SD), rat, plasma, po, 10 mg/kg, repeat 10 mg/kg PO QD, Day 1, Mean of 3 animals, read-out: Tmax) of 1.33 h, a Cmax at 1 day [1, 5] of 699 ng/mL and an MRT inf at 1 day [1, 5] of 3.23 h. The MRT last at 1 day [1, 5] was 2.66 h, the half-life at 1 day [1, 5] was 123 min and the Tmax at 1 day ([1]; Sprague-Dawley, rat, plasma, po, 10 mg/kg, repeat 10 mg/kg PO QD, Day 1, individual animal, read-out: Tmax) was 1 h. The Cmax at 5 day [1, 6] was 5.96 ng/mL, the MRT last at 5 day [1, 6] was 4.56 h and the Tmax at 5 day [1, 6] was 20 min. The AUC(0-t) [1, 6] was 11.4 ng·h/mL, the Tmax at 5 day ([1]; Sprague-Dawley, rat, plasma, po, 10 mg/kg, repeat 10 mg/kg PO QD, Day 5, individual animal) was 30 min and the “behaviour of exposure after 5 days of repeat dosing (in words)” value [1] was “increased elimination”. The AUCinf [1, 7] was 2140 ng·h/mL and 4070 ng·h/mL and 1840 ng·h/mL, the AUClast [1, 7] was 1990 ng·h/mL and 4030 ng·h/mL and 1770 ng·h/mL and the Cmax [1, 7] was 1090 ng/mL and 587 ng/mL. The MRTinf [1, 7] was 2.48 h and 2.66 h, the MRTlast [1, 7] was 2.42 h and 2.36 h and the T1/2 [1, 7] was 1.04 h and 1.57 h. The Tmax [1, 7] was 2 h, the AUClast [1, 8] was 11.9 ng·h/mL and 14.9 ng·h/mL and 7.28 ng·h/mL and the Cmax [1, 8] was 5.53 ng/mL and 8.36 ng/mL and 3.98 ng/mL. For the same molecule, the MRTlast [1, 8] was 3.29 h and 8.95 h and 1.44 h and the Tmax [1, 8] was 0.25 h.
Molecule `CC(C)(N)c1csc(C(=O)c2c[nH]c3cc(F)ccc23)n1` [ARI-226, (4-(2-aminopropan-2-yl)thiazol-2-yl)(6-fluoro-1H-indol-3-yl)methanone] has an AUC(0-inf) [1, 9] of 832 ng·h/mL, a Cmax at 1 day [1, 9] of 112 ng/mL and an MRT inf at 1 day [1, 9] of 5.81 h. For the same molecule, the half-life at 1 day [1, 9] was 137 min, the AUC(0-t) [1, 9] was 831 ng·h/mL and the Tmax at 1 day ([1]; SD, rat, plasma, po, 10 mg/kg, PO 10 mg/kg repeat dose, Day 1, Mean of 3 animals, read-out: Tmax) was 4 h. The Tmax at 5 days ([1]; SD, rat, plasma, po, 10 mg/kg, PO 10 mg/kg repeat dose, Day 5, individual animals (ID 4, 5, 6)) was 1 h, the MRT inf [1, 10] was 5.23 h and the half-life [1, 10] was 153 min. The Tmax ([1]; Sprague-Dawley (SD), rat, plasma, po, 10 mg/kg, PO 10 mg/kg repeat dose, Day 1, individual animals (ID 4, 5, 6), read-out: Tmax) was 4 h, the AUC(0-inf) [1, 11] was 38.7 ng·h/mL and the MRT inf [1, 11] was 3.01 h. For the same molecule, the half-life [1, 11] was 98.4 min, the AUC(0-t) [1, 11] was 35.7 ng·h/mL and the Cmax ([1]; Sprague-Dawley (SD), rat, plasma, po, 10 mg/kg, PO 10 mg/kg repeat dose, Day 5, Mean of 3 animals, read-out: Cmax) was 9.78 ng/mL. For the same molecule, the Tmax ([1]; Sprague-Dawley (SD), rat, plasma, po, 10 mg/kg, PO 10 mg/kg repeat dose, Day 5, Mean of 3 animals, read-out: Tmax) was 1.67 h, the half-life ([1]; Sprague-Dawley (SD), rat, plasma, po, 10 mg/kg, PO 10 mg/kg repeat dose, Day 5, individual animals (ID 4, 5, 6)) was 63 min and the “behaviour of exposure after 5 days of repeat dosing (in words)” value [1] was “increased elimination”. For the same molecule, the MRTIast ([1]; PO 10 mg/kg repeat dose, Day 1, Mean of 3 animals) was 5.78 h, the AUCinf [1, 12] was 1280 ng·h/mL and 253 ng·h/mL and 963 ng·h/mL and the AUClast [1, 12] was 1280 ng·h/mL and 253 ng·h/mL and 963 ng·h/mL. The Cmax [1, 12] was 188 ng/mL and 28.4 ng/mL and 119 ng/mL, the MRTIast [1, 12] was 5.18 h and 5.96 h and 6.21 h and the MRTinf [1, 12] was 5.99 h and 6.22 h. The T1/2 [1, 12] was 2.39 h and 1.89 h, the MRTIast ([1]; PO 10 mg/kg repeat dose, Day 5, Mean of 3 animals) was 2.49 h and the AUCinf [1, 13] was 14.2 ng·h/mL and 54.7 ng·h/mL and 47.3 ng·h/mL. The AUClast [1, 13] was 13.0 ng·h/mL and 50.9 ng·h/mL and 43.2 ng·h/mL, the Cmax [1, 13] was 5.33 ng/mL and 13.2 ng/mL and 10.8 ng/mL and the MRTIast [1, 13] was 1.56 h and 2.76 h and 3.15 h. The MRTinf [1, 13] was 1.89 h and 3.31 h and 3.82 h, the T1/2 [1, 13] was 1.87 h and 2.01 h and the Tmax [1, 13] was 2 h.
